# Measured values reported in patent publication US20260286288A1, “REGULATED CELLS EXPRESSING CYTOKINES” (William Marsh Rice University, priority 2023, published 2026).
# “Also recorded” adds a separate entry of the source.
# How the values were obtained:
# [1] = test system: encapsulated IL2-ks cells; test: Viability of explanted IL2-ks capsules with or without intraperitoneal AP1903
# [2] = test system: IL2-ks cells (cells expressing IL-2 and an inducible kill switch); test: IL-2 ELISA of IL2-ks cell supernatant after AP1903; format: cell-based
# Protocol: FIG. 2 is a graph of mIL-2 concentration (pg/mL) of the two cell populations of FIG. 1, the first population (right) not having been exposed to AP1903 and the second population (left) less than 24 hours after exposure to 100 nM AP1903.
# FIG. 7A and FIG. 7B are graphs of IL-2 concentration (pg/mL) over time of four alginate-encapsulated, cytokine-producing, kill switch-inducible cell populations exposed to 0 nM, 10 nM, 100 nM, and 1000 nM of small molecule kill switch inducer AP1903.
# (§1) Images were acquired at 20× magnification.
# [3] = test system: IL2-ks cells (cells expressing IL-2 and an inducible kill switch); test: Bright field imaging of IL2-ks cells after AP1903; format: cell-based; settings: 100 nM AP1903, 18 hours after administration
# From the text: as §1
# [4] = test system: encapsulated IL12-ks cells; test: AP1903-induced encapsulated cell death of mIL12 ks capsules in mice; format: in vivo
# From the text: FIG. 9A is an in vitro assay. […] FIG. 9B is an in vitro assay. […] FIG. 9C is an in vivo assay.
# RPE-mIL12-ks cells [5] = test: cells; settings: 24 h, read-out: cell death
# Protocol: (§2) Images of RPE-mIL 12-ks cells via the microscope 24 hours after 0 nM (left) or 10 nM AP1903 (right) administration. […] Cell viability measured after lysing encapsulated RPE-IL12-ks via cell counter 24 hours post administration (n=3).
# (§3) FIG. 9A is series of two annotated photographs of two populations of cytokine-producing, kill switch-inducible cells, the first population (left) not having been exposed to small molecule kill switch inducer AP1903, and the second population (right) 24 hours after exposure to 10 nM AP1903. FIG. 9B is the administration of different concentrations of CID (AP1903) in mIL 12 ks cells in a 24-well plate for 24 hours. […] FIG. 9C is the validation of AP1903 treatment in inducing encapsulated cell death in mice. The inventors implant 50 mIL12 ks capsules in each mouse and administrate half of the mice with AP1903 right after implantation surgeries. Euthanize all the mice after 24 hours, retrieve capsules and lysis capsules for measuring cell viability.
# RPE-mIL12-ks cells [6] = settings: in vitro and in vivo assays of FIGS. 9A-C
# Protocol: as §2, §3
# [7] = test system: Encapsulated IL2-ks cells; test: mIL-2 ELISA of capsule supernatant of encapsulated IL2-ks cells after AP1903; format: cell-based; settings: 10 nM, 100 nM or 1000 nM AP1903, alginate-encapsulated cells
# Protocol: FIG. 3A and FIG. 3B are graphs of mIL-2 concentration (pg/mL) over time of four alginate-encapsulated, cytokine-producing, kill switch-inducible cell populations exposed to 0 nM, 10 nM, 100 nM, and 1000 nM of small molecule kill switch inducer AP1903.
# as §1
structure (smiles),measurement,setting,value
CC[C@H](C(=O)N1CCCC[C@H]1C(=O)O[C@H](CCc1ccc(OC)c(OC)c1)c1cccc(OCC(=O)NCCNC(=O)COc2cccc([C@@H](CCc3ccc(OC)c(OC)c3)OC(=O)[C@@H]3CCCCN3C(=O)[C@@H](CC)c3cc(OC)c(OC)c(OC)c3)c2)c1)c1cc(OC)c(OC)c(OC)c1 [AP1903],time for encapsulated IL2-ks cells to respond to AP1903,"[1]; 0.4 mg/mL AP1903, healthy mice",less than 16 hours
same,viability at 400 µg/mL,"[1]; Mus musculus, ip, read-out: viability of explanted capsules (live)",< 10%
same,IL-2 concentration from cell supernatant,"[2]; 10 nM, 100 nM or 1000 nM AP1903, 3 hours after administration",significant reduction in cytokine production
same,mIL-2 concentration from cell supernatant,"[2]; 100 nM AP1903, 18 hours after administration, n=3 wells",significant reduction in cytokine production; also recorded: decreased mIL-2 production
same,cell death (bright field images),[3],induced cell death
same,time for encapsulated IL12-ks cells to respond to AP1903,"[4]; 0.4 mg/mL AP1903, healthy mice, n=3",less than 24 hours
same,cell viability of retrieved capsules,"[4]; AP1903 right after implantation of 50 capsules, 24 hours, compared to control mice",decreased cell viability
same,cytotoxicity at 0.01 µM,RPE-mIL12-ks cells [5],99%
same,induction of cell death in RPE-mIL 12-ks cells,RPE-mIL12-ks cells [6],highly effective at inducing cell death
same,mIL-2 concentration over time from capsule supernatant,[7],IL-2 production was reduced; also recorded: decreased mIL-2 production
